Data from publication PMC8047011, “Enantiomers of 2-methylglutamate and 2-methylglutamine selectively impact mouse brain metabolism and behavior” (Scientific Reports, 2021).

Experiments:
GABAA α4β3γ2 = biological target: T1, GABAA α4β3γ2 (Homo sapiens, UniProt P28472+P48169); assay: FLIPR functional receptor assay, GABAA α4β3γ2; assay type: cell-based; conditions: agonist mode; top test concentration 1 mM
T1 construct: host or cells: HEK 293
Protocol: (§1) intensity and lower number of tone and shock (2x) pairings to create a greater opportunity to observe pharmacologic activity.
(§2) Receptor functional & binding assays
(§3) Functional assays of all GABAA, NMDA (GluN2A–GluN2D) and AMPA (GluA2) receptor subunits were performed by SB Drug Discovery as a part of their CNS discovery panel using FLIPR technology. Briefly, receptor-expressing HEK 293 cell lines were incubated in a red membrane potential dye in HEPES:HBSS pH 7.4 buffer and the fluorescence (λex: 488, λex: 510–570) was monitored over time as the test compounds and/or reference compounds were added to the solution. In agonist assay, only test compounds were added. In positive allosteric modulator assay, cells were preincubated with test compounds and then low concentration (approximately EC20) of an appropriate agonist was added. In antagonist assay, cells were preincubated with test compounds and then high concentration (approximately EC80) of an appropriate agonist was added. For GABAA assays, GABA was used as the agonist, picrotoxin was used as the reference antagonist and allopregnanolone was used as the reference positive allosteric modulator (PAM). […] All compounds were tested at 7 concentration points in triplicate and EC50/IC50 was determined where applicable. […]

[1] = tested on: mouse cerebral synaptosomes; assay: Synaptosomal neurotransmitter uptake assay; assay type: cell-based; conditions: 10 μM substrate; for Transport into synaptosomes: 37 °C
Protocol: Mouse cerebral synaptosomes were prepared according to published methods. See Supplementary Methods for details. 500 μL aliquots of the synaptosome suspension were transferred to pre-chilled microcentrifuge tubes for experiments. Centrifugations were at 8000g for 4 min at 4 °C, unless stated otherwise, and all samples were stored at − 80 °C.
To each tube, 5 μL of a test compound solution (final concentration 10 μM) in Buffer KRP or Buffer KRP alone were added. Samples were incubated at 4 °C or 37 °C for 1, 10, or 30 min and then immediately centrifuged and washed twice by resuspension–centrifugation with Buffer S (0.5 mL). Resulting pellets were resuspended in 170 μL of 0.1% aqueous formic acid and mixed with 330 μL of ACN.
Buffer S (4 mL, × 1) and Buffer KRP (2 mL, × 3). The resulting pellet was resuspended in 3 mL of Buffer KRP and filtered on Ultrafree-CL 5 μm PVDF centrifugal device (1,000g for 4 min at 4 °C). The filtrate was diluted to 15 mL with ice cold Buffer KRP and kept on ice. The synaptosome preparation was used immediately in the following experiments.
Synaptosomal neurotransmitter uptake assay
96-well plate experiments: 250 μL aliquots of the synaptosome suspension were transferred to two 0.8-mL 96 well plates, one on ice (0 °C samples only) and one in a thermoblock (37 °C samples only), and equilibrated for 10 min. 5 μL of a test compound (0.5 mM; final concentration: 10 μM) in Buffer KRP or Buffer KRP blank were added 10, 20 or 30 min before the incubation termination. “0 min” samples were prepared by placing the test compound solution in a separate pre-chilled V-shape bottom 2-mL 96 well plate; at the end of incubation 200 μL aliquots of all samples were transferred to the 2-mL 96 well plate and centrifuged (2,500g for 15 min at 4 °C) immediately. The resulting pellets were rinsed with Buffer KRP, followed by centrifugation, twice, then resuspended in 200 μL of 60% ACN containing 2.5 μM Glu-d5 as internal standard and stored at –80 °C until analysis. […]

GABAB (B1/B2) = biological target: T2, GABAB (B1/B2) (Homo sapiens, UniProt Q9UBS5); assay: Functional GABAB assay, Ca2+-dependent fluorimetry in RBL cells; assay type: cell-based; conditions: 100 μM, triplicate
T2 construct: purchased SB Drug Discovery (CNS discovery panel, FLIPR); Eurofins Discovery (Cerep)
T2 sequence (Q9UBS5 20-961): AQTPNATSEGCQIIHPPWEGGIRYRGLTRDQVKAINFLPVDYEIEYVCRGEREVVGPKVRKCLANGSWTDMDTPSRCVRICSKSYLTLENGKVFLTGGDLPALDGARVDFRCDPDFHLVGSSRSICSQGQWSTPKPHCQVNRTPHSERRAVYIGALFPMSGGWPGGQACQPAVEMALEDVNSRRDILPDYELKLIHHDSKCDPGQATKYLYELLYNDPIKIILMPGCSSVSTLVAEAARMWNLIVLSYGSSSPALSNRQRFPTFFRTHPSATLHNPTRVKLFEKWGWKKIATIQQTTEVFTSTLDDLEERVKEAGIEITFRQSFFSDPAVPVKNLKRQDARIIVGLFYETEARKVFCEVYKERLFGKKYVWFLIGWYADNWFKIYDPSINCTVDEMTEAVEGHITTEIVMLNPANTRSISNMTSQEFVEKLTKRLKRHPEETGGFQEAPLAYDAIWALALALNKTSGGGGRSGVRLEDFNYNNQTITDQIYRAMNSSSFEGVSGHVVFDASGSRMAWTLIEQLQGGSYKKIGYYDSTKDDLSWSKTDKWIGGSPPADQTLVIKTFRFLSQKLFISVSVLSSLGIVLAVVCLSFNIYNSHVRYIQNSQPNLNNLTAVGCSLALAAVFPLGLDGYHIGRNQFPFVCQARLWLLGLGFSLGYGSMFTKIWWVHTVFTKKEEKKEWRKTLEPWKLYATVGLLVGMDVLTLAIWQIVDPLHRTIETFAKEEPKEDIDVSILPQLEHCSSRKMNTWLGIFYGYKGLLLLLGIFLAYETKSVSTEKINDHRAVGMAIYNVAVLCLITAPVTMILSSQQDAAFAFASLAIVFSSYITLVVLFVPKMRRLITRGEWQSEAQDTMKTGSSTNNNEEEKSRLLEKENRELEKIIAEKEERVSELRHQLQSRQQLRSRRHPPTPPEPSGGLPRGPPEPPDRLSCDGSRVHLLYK
T2 sequence (O75899 42-941 partner): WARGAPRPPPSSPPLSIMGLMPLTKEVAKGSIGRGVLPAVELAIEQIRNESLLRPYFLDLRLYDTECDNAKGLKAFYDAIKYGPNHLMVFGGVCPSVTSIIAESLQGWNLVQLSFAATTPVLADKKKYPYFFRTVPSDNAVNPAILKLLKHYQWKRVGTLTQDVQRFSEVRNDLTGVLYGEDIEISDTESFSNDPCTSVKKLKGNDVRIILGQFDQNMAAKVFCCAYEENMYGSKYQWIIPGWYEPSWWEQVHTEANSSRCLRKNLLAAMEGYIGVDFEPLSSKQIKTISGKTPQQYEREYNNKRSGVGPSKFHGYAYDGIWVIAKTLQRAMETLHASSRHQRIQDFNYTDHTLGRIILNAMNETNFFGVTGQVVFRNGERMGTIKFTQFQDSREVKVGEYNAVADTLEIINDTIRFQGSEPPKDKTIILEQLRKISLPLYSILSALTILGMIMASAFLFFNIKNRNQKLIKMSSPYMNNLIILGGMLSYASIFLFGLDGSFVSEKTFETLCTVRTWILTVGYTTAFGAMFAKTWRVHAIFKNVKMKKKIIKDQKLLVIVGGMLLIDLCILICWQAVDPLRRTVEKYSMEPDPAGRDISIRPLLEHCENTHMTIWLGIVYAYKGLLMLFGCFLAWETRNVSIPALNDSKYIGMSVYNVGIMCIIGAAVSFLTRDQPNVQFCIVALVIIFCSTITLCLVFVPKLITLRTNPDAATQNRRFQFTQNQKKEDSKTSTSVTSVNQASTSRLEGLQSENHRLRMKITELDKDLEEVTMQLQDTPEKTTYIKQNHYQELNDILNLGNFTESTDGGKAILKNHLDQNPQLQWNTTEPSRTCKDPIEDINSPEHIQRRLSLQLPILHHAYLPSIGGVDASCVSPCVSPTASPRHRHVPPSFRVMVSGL

GABAA α3β3γ2 = biological target: T3, GABAA α3β3γ2 (Homo sapiens, UniProt P28472+P34903); assay: FLIPR functional receptor assay, GABAA α3β3γ2; assay type: cell-based; conditions: top test concentration 1 mM; for EC50: agonist mode
T3 construct: host or cells: HEK 293
T3 sequence (P34903 29-492): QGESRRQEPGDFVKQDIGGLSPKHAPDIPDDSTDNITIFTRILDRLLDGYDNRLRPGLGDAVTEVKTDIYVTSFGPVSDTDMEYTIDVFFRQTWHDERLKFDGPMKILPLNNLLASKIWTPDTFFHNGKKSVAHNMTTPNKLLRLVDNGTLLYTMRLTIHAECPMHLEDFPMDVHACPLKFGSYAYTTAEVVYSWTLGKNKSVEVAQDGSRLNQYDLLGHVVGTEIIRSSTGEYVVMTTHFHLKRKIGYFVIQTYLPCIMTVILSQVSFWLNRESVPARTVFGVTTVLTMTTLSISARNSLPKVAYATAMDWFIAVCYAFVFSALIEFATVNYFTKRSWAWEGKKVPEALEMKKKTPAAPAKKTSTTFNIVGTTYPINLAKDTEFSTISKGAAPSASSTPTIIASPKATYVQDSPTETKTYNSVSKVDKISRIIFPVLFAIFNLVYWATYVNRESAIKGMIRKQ
T3 sequence (P28472 26-473): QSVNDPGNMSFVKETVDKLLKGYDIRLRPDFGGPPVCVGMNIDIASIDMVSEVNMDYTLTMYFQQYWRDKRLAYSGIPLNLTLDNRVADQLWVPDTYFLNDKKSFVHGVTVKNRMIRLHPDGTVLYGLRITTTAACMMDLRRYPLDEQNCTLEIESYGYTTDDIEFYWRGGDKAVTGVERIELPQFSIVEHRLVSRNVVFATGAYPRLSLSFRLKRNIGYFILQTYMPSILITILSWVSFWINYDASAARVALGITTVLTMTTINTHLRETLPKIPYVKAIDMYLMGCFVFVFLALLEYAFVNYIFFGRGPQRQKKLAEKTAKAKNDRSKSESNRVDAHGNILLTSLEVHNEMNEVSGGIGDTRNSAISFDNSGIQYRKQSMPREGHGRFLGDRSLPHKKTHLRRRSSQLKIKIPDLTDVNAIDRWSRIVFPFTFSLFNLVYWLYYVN
T3 sequence (P18507 40-475 partner): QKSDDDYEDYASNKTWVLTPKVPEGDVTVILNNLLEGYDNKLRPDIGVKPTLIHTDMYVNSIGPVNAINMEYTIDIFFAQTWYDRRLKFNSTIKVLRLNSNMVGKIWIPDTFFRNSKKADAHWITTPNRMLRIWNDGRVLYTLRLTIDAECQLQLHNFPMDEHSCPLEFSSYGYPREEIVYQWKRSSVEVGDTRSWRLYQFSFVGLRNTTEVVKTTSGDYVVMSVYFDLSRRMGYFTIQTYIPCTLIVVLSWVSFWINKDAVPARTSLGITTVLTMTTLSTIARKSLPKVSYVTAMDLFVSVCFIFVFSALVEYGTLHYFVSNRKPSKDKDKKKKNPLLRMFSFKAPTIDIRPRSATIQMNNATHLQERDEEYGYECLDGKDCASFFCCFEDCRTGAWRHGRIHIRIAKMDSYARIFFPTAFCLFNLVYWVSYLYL
Protocol: as §2
Functional assays of all GABAA, NMDA (GluN2A–GluN2D) and AMPA (GluA2) receptor subunits were performed by SB Drug Discovery as a part of their CNS discovery panel using FLIPR technology. Briefly, receptor-expressing HEK 293 cell lines were incubated in a red membrane potential dye in HEPES:HBSS pH 7.4 buffer and the fluorescence (λex: 488, λex: 510–570) was monitored over time as the test compounds and/or reference compounds were added to the solution. In agonist assay, only test compounds were added. In positive allosteric modulator assay, cells were preincubated with test compounds and then low concentration (approximately EC20) of an appropriate agonist was added. In antagonist assay, cells were preincubated with test compounds and then high concentration (approximately EC80) of an appropriate agonist was added. For GABAA assays, GABA was used as the agonist, picrotoxin was used as the reference antagonist and allopregnanolone was used as the reference positive allosteric modulator (PAM). For NMDA assays, a mixture of glutamate, glycine and CaCl2 was used as the agonist, MK801 was the reference antagonist and pregnenolone sulfate or GNE 9278 were used as reference PAMs. For AMPA assays, glutamate was used as the agonist, CNQX was the reference antagonist and cyclothiazide was used as the reference PAM. All compounds were tested at 7 concentration points in triplicate and EC50/IC50 was determined where applicable. […]

kainate nonspecific = assay: Nonspecific kainate binding assay; conditions: 100 μM, triplicate; rat
Protocol: (§4) Nonspecific AMPA, kainate and NMDA binding assays were performed by Eurofins Discovery
(§5) (Cerep) using rat cerebral cortex membranes and radiolabeled [3H]AMPA, [3H]kainic acid and
(§6) [3H]CGP 39653, respectively. […]

GABAA α4β2γ2 = biological target: T4, GABAA α4β2γ2 (Homo sapiens, UniProt P47870+P48169); assay: FLIPR functional receptor assay, GABAA α4β2γ2; assay type: cell-based; conditions: agonist mode; top test concentration 1 mM
T4 construct: host or cells: HEK 293
Protocol: as §1, §2, §3

AMPA nonspecific = assay: Nonspecific AMPA binding assay; conditions: 100 μM, triplicate; rat
Protocol: as §4, §5, §6

mGluR2 = biological target: T5, mGluR2 (Homo sapiens, UniProt Q14416); assay: mGluR2 radioligand binding assay; conditions: triplicate
T5 construct: purchased SB Drug Discovery (CNS discovery panel, FLIPR); Eurofins Discovery (Cerep)
T5 sequence (Q14416 19-872): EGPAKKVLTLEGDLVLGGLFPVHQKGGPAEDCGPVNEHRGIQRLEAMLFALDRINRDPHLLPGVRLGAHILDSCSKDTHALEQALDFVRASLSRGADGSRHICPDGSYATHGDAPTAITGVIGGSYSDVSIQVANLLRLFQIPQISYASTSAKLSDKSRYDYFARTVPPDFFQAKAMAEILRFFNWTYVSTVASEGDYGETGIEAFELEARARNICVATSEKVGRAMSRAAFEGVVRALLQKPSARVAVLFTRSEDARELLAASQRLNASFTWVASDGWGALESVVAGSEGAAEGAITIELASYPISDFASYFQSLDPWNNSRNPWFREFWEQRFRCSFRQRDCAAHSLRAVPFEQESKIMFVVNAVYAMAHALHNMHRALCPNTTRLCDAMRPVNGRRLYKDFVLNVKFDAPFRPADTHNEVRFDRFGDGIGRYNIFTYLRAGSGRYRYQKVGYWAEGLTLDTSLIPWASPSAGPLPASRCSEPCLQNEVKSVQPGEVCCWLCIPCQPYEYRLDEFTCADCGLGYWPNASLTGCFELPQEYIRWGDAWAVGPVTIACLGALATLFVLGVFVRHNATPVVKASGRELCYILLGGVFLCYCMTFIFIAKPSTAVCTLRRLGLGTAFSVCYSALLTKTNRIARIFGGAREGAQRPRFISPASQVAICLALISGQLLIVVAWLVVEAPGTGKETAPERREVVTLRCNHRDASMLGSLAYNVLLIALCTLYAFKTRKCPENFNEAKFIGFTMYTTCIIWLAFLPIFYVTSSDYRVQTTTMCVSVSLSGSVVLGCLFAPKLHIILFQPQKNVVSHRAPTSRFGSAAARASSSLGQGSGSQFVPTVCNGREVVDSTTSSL
Protocol: mGluR1, mGluR2, mGluR5 and GABAB binding assays were performed by Eurofins Discovery. […]
[3H]CGP-54626 and [3H]quisqalic acid, respectively. All compounds were tested at a single
concentration of 100 uM in triplicate. […]

T1 sequence (P48169 36-554): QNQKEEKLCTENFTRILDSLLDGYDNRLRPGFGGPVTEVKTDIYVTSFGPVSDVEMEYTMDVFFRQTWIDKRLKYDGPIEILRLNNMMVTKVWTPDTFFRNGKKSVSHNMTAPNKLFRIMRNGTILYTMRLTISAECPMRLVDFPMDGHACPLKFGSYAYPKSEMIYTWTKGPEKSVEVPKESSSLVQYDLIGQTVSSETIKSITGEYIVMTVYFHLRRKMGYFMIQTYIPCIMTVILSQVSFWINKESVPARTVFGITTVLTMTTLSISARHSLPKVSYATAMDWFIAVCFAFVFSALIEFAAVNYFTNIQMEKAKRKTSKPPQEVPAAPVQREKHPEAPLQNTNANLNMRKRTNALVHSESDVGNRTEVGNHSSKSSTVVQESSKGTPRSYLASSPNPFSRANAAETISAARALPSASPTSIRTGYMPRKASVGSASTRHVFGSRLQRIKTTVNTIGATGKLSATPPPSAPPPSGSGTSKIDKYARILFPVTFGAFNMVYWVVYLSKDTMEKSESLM
T1 sequence (P28472 26-473): as the sequence (P28472 26-473) above
T1 sequence (P18507 40-475 partner): as the sequence (P18507 40-475 partner) above

SMILES | EC50 (GABAA α4β3γ2) [µM] | Transport into synaptosomes [1] | % of agonist response, GABAB (B1/B2) (GABAB (B1/B2)) [%] | EC50 (GABAA α3β3γ2) [µM] | % of radioligand binding inhibition, kainate nonspec (kainate nonspecific) [%] | EC50 (GABAA α4β2γ2) [µM] | % of radioligand binding inhibition, AMPA nonspec (AMPA nonspecific) [%] | inhibition at 100 µM (mGluR2) [%] | Synaptosomal uptake rate relative to the R enantiomer [1] | IC50 (GABAA α3β3γ2; antagonist mode) [µM]
C[C@@](N)(CCC(=O)O)C(=O)O [(R)-2MeGlu, (R)-2-methylglutamic acid] | > 1000 | transported into synaptosomes | 0 | 959 | 18 | > 1000 | 15 | -3 |  | 
C[C@](N)(CCC(=O)O)C(=O)O [(S)-2MeGlu, (S)-2-methylglutamic acid] | > 1000 | transported into synaptosomes | 0 | 725 | 20 | > 1000 | 12 | 25 | approximately threefold faster | 978
